One assay deals with cultured human mast cells (CHMC). Nature of the assay: CHMC low cell density IgE activation: tryptase assay. Conditions: Homo sapiens, Mast cell, low cell density CHMC, IgE activation, tryptase, 3 pt; read-out: LD Tryptase, CHMC, IgE, 3 pt. Format: cell-based. An outline of the steps: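 CHMC were seeded at 1000–1500 cells/well in MT buffer and incubated 1 hr at 37 °C. They were then stimulated with anti-IgE for 30 min at 37 °C, with unstimulated wells as controls. Released tryptase in the supernatant was measured with a fluorogenic substrate after 30 min at room temperature.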
Consider `CCCn1ncc2cc(Nc3ncc(F)c(Nc4ccc(Cl)c(Cl)c4)n3)ccc21` [Compound 703, N4-(3,4-Dichlorophenyl)-5-fluoro-N2-(1-n-propylindazol-5-yl)-2,4-pyrimidinediamine], for which the IC50 was below 10 µM.
Still for that read-out and setting: for `CCCn1ncc2ccc(Nc3ncc(F)c(Nc4ccc(Cl)c(Cl)c4)n3)cc21` [Compound 707, N4-(3,4-Dichlorophenyl)-5-fluoro-N2-(1-n-propylindazol-6-yl)-2,4-pyrimidinediamine] the value was below 10 µM.
On the same count and under the same terms, under `CCCCn1ncc2cc(Nc3ncc(F)c(Nc4ccc(OC)c(Cl)c4)n3)ccc21` [Compound 710, N2-(1-n-Butylindazol-5-yl)-N4-(3-chloro-4-methoxyphenyl)-5-fluoro-2,4-pyrimidinediamine] stands below 10 µM; under `CCCCn1ncc2cc(Nc3ncc(F)c(Nc4ccc(Cl)c(Cl)c4)n3)ccc21` [Compound 711, N2-(1-n-Butylindazol-5-yl)-N4-(3,4-dichlorophenyl)-5-fluoro-2,4-pyrimidinediamine], below 10 µM.
On the same count and under the same terms, for `CCCCn1ncc2cc(Nc3ncc(F)c(Nc4ccc(F)c(OC)c4)n3)ccc21` [Compound 713, N2-(1-n-Butylindazol-5-yl)-5-fluoro-N4-(4-fluoro-3-methoxyphenyl)-2,4-pyrimidinediamine] the value was below 10 µM; for `CCCCn1ncc2ccc(Nc3ncc(F)c(Nc4ccc(Cl)c(Cl)c4)n3)cc21` [Compound 715, N2-(1-n-Butylindazol-6-yl)-N4-(3,4-dichlorophenyl)-5-fluoro-2,4-pyrimidinediamine], below 10 µM.
In the case of `CCCCn1ncc2ccc(Nc3ncc(F)c(Nc4ccc(F)c(OC)c4)n3)cc21` [Compound 717, N2-(1-n-Butylindazol-6-yl)-5-fluoro-N4-(4-fluoro-3-methoxyphenyl)-2,4-pyrimidinediamine], the IC50 is below 10 µM.
Regarding `COc1ccc(Nc2nc(Nc3ccc4c(cnn4CC4CCCCC4)c3)ncc2F)cc1Cl` [Compound 718, N4-(3-Chloro-4-methoxyphenyl)-N2-[1-(cyclohexylmethyl)indazol-5-yl]-5-fluoro-2,4-pyrimidinediamine], the IC50 is below 10 µM.
Same read-out and setting: under `Fc1cnc(Nc2ccc3c(cnn3CC3CCCCC3)c2)nc1Nc1ccc(Cl)c(Cl)c1` [Compound 719, N2-[1-(Cyclohexylmethyl)indazol-5-yl]-N4-(3,4-dichlorophenyl)-5-fluoro-2,4-pyrimidinediamine] stands below 10 µM; under `COc1cc(Nc2nc(Nc3ccc4c(cnn4CC4CCCCC4)c3)ncc2F)ccc1F` [Compound 721, N2-[1-(Cyclohexylmethyl)indazol-5-yl)-5-fluoro-N4-(4-fluoro-3-methoxyphenyl)-2,4-pyrimidinediamine], below 10 µM; under `COc1ccc(Nc2nc(Nc3ccc4cnn(CC5CCCCC5)c4c3)ncc2F)cc1Cl` [Compound 722, N4-(3-Chloro-4-methoxyphenyl)-N2-[1-(cyclohexylmethyl)indazol-6-yl]-5-fluoro-2,4-pyrimidinediamine], below 10 µM.
Consider `Fc1cnc(Nc2ccc3cnn(CC4CCCCC4)c3c2)nc1Nc1ccc(Cl)c(Cl)c1` [Compound 723, N2-[1-(Cyclohexylmethyl)indazol-6-yl]-N4-(3,4-dichlorophenyl)-5-fluoro-2,4-pyrimidinediamine], for which the IC50 is above 10 µM.
Same read-out and setting: for `COc1cc(Nc2nc(Nc3ccc4cnn(CC5CCCCC5)c4c3)ncc2F)ccc1F` [Compound 725, N2-[1-(Cyclohexylmethyl)indazol-6-yl)-5-fluoro-N4-(4-fluoro-3-methoxyphenyl)-2,4-pyrimidinediamine] the value was below 10 µM; for `COc1ccc(Nc2nc(Nc3ccc4c(cnn4CC4CCC4)c3)ncc2F)cc1Cl` [Compound 726, N4-(3-Chloro-4-methoxyphenyl)-N2-[1-(cyclobutylmethyl)indazol-5-yl]-5-fluoro-2,4-pyrimidinediamine], below 10 µM; for `Fc1cnc(Nc2ccc3c(cnn3CC3CCC3)c2)nc1Nc1ccc(Cl)c(Cl)c1` [Compound 727, N2-[1-(Cyclobutylmethyl)indazol-5-yl]-N4-(3,4-dichlorophenyl)-5-fluoro-2,4-pyrimidinediamine], below 10 µM.

The assay is the same for the next values; noted with them: Homo sapiens, Mast cell, low cell density CHMC, IgE activation, tryptase, 8 pt; read-out: LD Tryptase, CHMC, IgE, 8 pt.
Consider `CCCn1ncc2cc(Nc3ncc(F)c(Nc4ccc(OC)c(Cl)c4)n3)ccc21` [Compound 702, N4-(3-Chloro-4-methoxyphenyl)-5-fluoro-N2-(1-n-propylindazol-5-yl)-2,4-pyrimidinediamine], for which the IC50 was below 10 µM.
The same measure, in the same setting: for `CCCn1ncc2cc(Nc3ncc(F)c(Nc4ccc5c(c4)NC(=O)C(C)(C)O5)n3)ccc21` [Compound 704, N4-(2,2-Dimethyl-3-oxo-4H-benz[1,4]oxazin-6-yl)-5-fluoro-N2-(1-n-propylindazol-5-yl)-2,4-pyrimidinediamine] the value was below 10 µM; for `CCCn1ncc2cc(Nc3ncc(F)c(Nc4ccc(F)c(OC)c4)n3)ccc21` [Compound 705, 5-Fluoro-N4-(4-fluoro-3-methoxyphenyl)-N2-(1-n-propylindazol-5-yl)-2,4-pyrimidinediamine], below 10 µM; for `CCCn1ncc2ccc(Nc3ncc(F)c(Nc4ccc(Cl)c(Cl)c4)n3)cc21` [Compound 707, N4-(3,4-Dichlorophenyl)-5-fluoro-N2-(1-n-propylindazol-6-yl)-2,4-pyrimidinediamine], below 10 µM.
Consider `CCCn1ncc2ccc(Nc3ncc(F)c(Nc4ccc5c(c4)NC(=O)C(C)(C)O5)n3)cc21` [Compound 708, N4-(2,2-Dimethyl-3-oxo-4H-benz[1,4]oxazin-6-yl)-5-fluoro-N2-(1-n-propylindazol-6-yl)-2,4-pyrimidinediamine], for which the IC50 was below 10 µM.
Same read-out and setting: for `CCCn1ncc2ccc(Nc3ncc(F)c(Nc4ccc(F)c(OC)c4)n3)cc21` [Compound 709, 5-Fluoro-N4-(4-fluoro-3-methoxyphenyl)-N2-(1-n-propylindazol-6-yl)-2,4-pyrimidinediamine] the value was below 10 µM; for `CCCCn1ncc2cc(Nc3ncc(F)c(Nc4ccc5c(c4)NC(=O)C(C)(C)O5)n3)ccc21` [Compound 712, N2-(1-n-Butylindazol-5-yl)-N4-(2,2-dimethyl-3-oxo-4H-benz[1,4]oxazin-6-yl)-5-fluoro-2,4-pyrimidinediamine], below 10 µM; for `CCCCn1ncc2cc(Nc3ncc(F)c(Nc4ccc(F)c(OC)c4)n3)ccc21` [Compound 713, N2-(1-n-Butylindazol-5-yl)-5-fluoro-N4-(4-fluoro-3-methoxyphenyl)-2,4-pyrimidinediamine], below 10 µM.
On the same count and under the same terms, for `CCCCn1ncc2ccc(Nc3ncc(F)c(Nc4ccc(OC)c(Cl)c4)n3)cc21` [Compound 714, N2-(1-n-Butylindazol-6-yl)-N4-(3-chloro-4-methoxyphenyl)-5-fluoro-2,4-pyrimidinediamine] the value was below 10 µM; for `CCCCn1ncc2ccc(Nc3ncc(F)c(Nc4ccc5c(c4)NC(=O)C(C)(C)O5)n3)cc21` [Compound 716, N2-(1-n-Butylindazol-6-yl)-N4-(2,2-dimethyl-3-oxo-4H-benz[1,4]oxazin-6-yl)-5-fluoro-2,4-pyrimidinediamine], below 10 µM.
As to `CC1(C)Oc2ccc(Nc3nc(Nc4ccc5c(cnn5CC5CCCCC5)c4)ncc3F)cc2NC1=O` [Compound 720, N2-[1-(Cyclohexylmethyl)indazol-5-yl]-N4-(2,2-dimethyl-3-oxo-4H-benz[1,4]oxazin-6-yl)-5-fluoro-2,4-pyrimidinediamine], the IC50 was below 10 µM.
On the same count and under the same terms, for `COc1ccc(Nc2nc(Nc3ccc4cnn(CC5CCCCC5)c4c3)ncc2F)cc1Cl` [Compound 722, N4-(3-Chloro-4-methoxyphenyl)-N2-[1-(cyclohexylmethyl)indazol-6-yl]-5-fluoro-2,4-pyrimidinediamine] the value was below 10 µM.
On the same count and under the same terms, for `CC1(C)Oc2ccc(Nc3nc(Nc4ccc5cnn(CC6CCCCC6)c5c4)ncc3F)cc2NC1=O` [Compound 724, N2-[1-(Cyclohexylmethyl)indazol-6-yl]-N4-(2,2-dimethyl-3-oxo-4H-benz[1,4]oxazin-6-yl)-5-fluoro-2,4-pyrimidinediamine] the value was below 10 µM.

The values above are taken from patent publication US20220073536A1 (Rigel Pharmaceuticals, Inc., priority 2003, published 2022).
